Test results: PMC6272417, “Quercitrin, an Inhibitor of Sortase A, Interferes with the Adhesion of Staphylococcal aureus” (Molecules, 2015)

Experiments:
Details in all cases: read-out: Binding Constants KA (1 × 10^5) L.mol^-1 (converted)
[1] = target: T1, Sortase A (SrtA) (Staphylococcus aureus, UniProt Q2FV99); assay: fluorescence-quenching binding constant KA; also FRET inhibition of purified SrtAΔN59 (IC50 […])
T1 construct: SrtAΔN59 (residues 60-206)

[2] = target: T2, Sortase A (SrtA) (Staphylococcus aureus, UniProt Q2FV99, V193A); assay: fluorescence-quenching binding constant KA
T2 construct: SrtAΔN59 (residues 60-206)

[3] = target: T3, Sortase A (SrtA) (Staphylococcus aureus, UniProt Q2FV99, G167A); assay: fluorescence-quenching binding constant KA
T3 construct: SrtAΔN59 (residues 60-206)

Q: For `C[C@@H]1O[C@@H](Oc2c(-c3ccc(O)c(O)c3)oc3cc(O)cc(O)c3c2=O)[C@H](O)[C@H](O)[C@H]1O` [QEN, Quercitrin], which Kd [1] is on record?
A: Its Kd is 1450 nM.

Q: What about the Kd [2] of the same compound?
A: Its Kd is 2380 nM.

Q: What about the Kd [3] of the same compound?
A: The Kd was 2700 nM.
